In assay [1] the test system is mice. As to the kind of experiment: Formalin test in mice (analgesic action, chronic pain component). Format: in vivo. The settings on record: for ED50: Mus musculus, iv, read-out: Inhibition of the nociceptive behaviour versus control, ED50 value; for Inhibition of the nociceptive behaviour versus control; % inhibition: mice. The procedure:
b) Investigations of the Analgesic Actions in the Formalin Test in Mice
The formalin test (Dubuisson, D. and Dennis, S. G., 1977, Pain, 4, 161-174) represents a model of acute and chronic pain. The chronic pain component was evaluated in the investigations described here.
A biphase nociceptive reaction which is recorded by observing three behaviour patterns which can be clearly differentiated from one another is induced in freely mobile test animals by a single formalin injection into the dorsal side of a hind paw.
Formalin is administered subcutaneously into the dorsal side of the right hind paw of each animal in a volume of 20 μl and a concentration of 1%.
The specific changes in behaviour which differ from the normal behaviour (score 0), such as raising (score 1) and shaking the paw (score 2) and biting and licking reactions (score 3), are observed and recorded continuously at component intervals of 3 min for up to 60 min after the administration of formalin. The changes in behaviour are weighted in different ways (score 0-3) and a pain rate (PR) is calculated using the following formula: PR=[(T0×0)+(T1×1)+(T2×2)+(T3×3)]/180.
The group size is 10 animals (n=10).
On the basis of the PR calculations, the action of the substance was determined as the change from a control in percent. The ED50 was determined by means of regression analysis.

In assay [2] the target is T1, NA re-uptake (Rattus norvegicus, UniProt Q63380).
T1 construct: synaptosomes are freshly isolated from rat brain areas; from tissue; host or cells: rat brain synaptosomes (P2 fraction), hypothalamus
T1 sequence (Q63380 1-617): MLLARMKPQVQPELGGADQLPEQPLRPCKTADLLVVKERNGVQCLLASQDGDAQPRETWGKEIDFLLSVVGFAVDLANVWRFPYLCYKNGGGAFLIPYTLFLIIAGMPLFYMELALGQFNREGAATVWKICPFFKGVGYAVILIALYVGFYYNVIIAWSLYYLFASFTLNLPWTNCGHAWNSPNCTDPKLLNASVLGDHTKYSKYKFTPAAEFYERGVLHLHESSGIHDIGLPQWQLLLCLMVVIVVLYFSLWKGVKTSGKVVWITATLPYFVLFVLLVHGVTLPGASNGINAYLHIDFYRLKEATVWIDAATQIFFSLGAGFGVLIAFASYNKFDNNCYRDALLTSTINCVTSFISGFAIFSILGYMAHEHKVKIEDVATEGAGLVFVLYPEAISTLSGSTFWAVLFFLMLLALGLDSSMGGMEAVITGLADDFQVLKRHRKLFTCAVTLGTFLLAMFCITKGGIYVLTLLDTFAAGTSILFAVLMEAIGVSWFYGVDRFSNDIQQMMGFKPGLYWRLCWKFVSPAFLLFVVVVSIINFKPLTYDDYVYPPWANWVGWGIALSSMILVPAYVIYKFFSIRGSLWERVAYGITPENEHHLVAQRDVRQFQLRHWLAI
Put plainly: Inhibition of NA re-uptake in rat brain synaptosomes (P2 fraction, hypothalamus). The format is biochemical. The conditions noted are these: for inhibition at 10 µM: 10 μmol/l. An excerpt:
(§1) a) Investigations of the Inhibition of the Re-uptake of 5-HT and NA
(§2) In order to be able to carry out these in vitro studies, synaptosomes are freshly isolated from rat brain areas. […] These vesicular particles are isolated from the hypothalamus for the NA re-uptake and from the medulla +pons region of male rat brains for the 5-HT re-uptake.
(§3) The IC50 values were obtained with the aid of the “Figure P” computer program (version 6.0, Biosoft, Cambridge, England). […] The “Ligand” computer program (version 4, Biosoft, England) was used to obtain KD values.

The target in assay [3] is T2, 5-HT re-uptake (Rattus norvegicus, UniProt P31652).
T2 construct: synaptosomes are freshly isolated from rat brain areas; from tissue; host or cells: rat brain synaptosomes (P2 fraction), medulla + pons region, male rats
T2 sequence (P31652 whole entry): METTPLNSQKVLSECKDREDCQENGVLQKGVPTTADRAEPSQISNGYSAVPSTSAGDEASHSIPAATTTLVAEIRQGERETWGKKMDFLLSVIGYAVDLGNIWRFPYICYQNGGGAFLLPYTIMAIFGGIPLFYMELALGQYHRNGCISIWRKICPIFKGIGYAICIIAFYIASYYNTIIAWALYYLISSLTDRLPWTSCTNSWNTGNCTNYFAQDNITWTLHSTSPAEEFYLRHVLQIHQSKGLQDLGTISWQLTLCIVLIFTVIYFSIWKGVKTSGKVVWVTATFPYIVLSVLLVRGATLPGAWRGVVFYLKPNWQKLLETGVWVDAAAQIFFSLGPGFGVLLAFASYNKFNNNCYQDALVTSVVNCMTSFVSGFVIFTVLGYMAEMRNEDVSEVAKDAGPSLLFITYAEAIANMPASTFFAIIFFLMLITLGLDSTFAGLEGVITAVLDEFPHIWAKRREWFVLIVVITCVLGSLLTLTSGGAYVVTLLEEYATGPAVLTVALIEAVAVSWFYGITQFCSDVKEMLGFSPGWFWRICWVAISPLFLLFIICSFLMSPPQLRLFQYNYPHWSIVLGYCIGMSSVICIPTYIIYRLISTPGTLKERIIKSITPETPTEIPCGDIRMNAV
Put plainly: Inhibition of 5-HT re-uptake in rat brain synaptosomes (P2 fraction, medulla + pons). The format is biochemical. The conditions noted are these: for inhibition at 10 µM: 10 μmol/l.
From the text: as §1, §2, §3

Where a name gives a salt, the structure may show the parent alone. Read-outs that look alike come from different tables or passages of the source.

As for `CN(C)CC1=C(c2cccnc2)CCCCC1.Cl` [Example 23, Dimethyl-(2-pyridin-3-yl-cyclohept-1-enylmethyl)-amine hydrochloride], the ED50 in assay [1] is 2.44 mg/kg. In addition, the inhibition at 10 µM in assay [2] turned out to be 50%; in assay [3], 86%.
Take `CN(C)CC1CCCCCC1(Cl)c1ccc(Cl)nc1` (stereo not drawn) [Example 13, [2-Chloro-2-(6-chloro-pyridin-3-yl)-cycloheptylmethyl]-dimethyl-amine hydrochloride]: the inhibition at 10 µM in assay [2] was found to be 75%; in assay [3], 38%.
Taken in the same sequence, the figures for `CN(C)C[C@@H]1CCCCC[C@@H]1c1cccnc1` (relative stereo) [Example 26, cis-Dimethyl-(2-pyridin-3-yl-cycloheptylmethyl)-amine hydrochloride] were 28% and 82%.
`CCCN(CCC)CC1=C(c2cccnc2)CCCC1.Cl` [Example 65, Dipropyl-(2-pyridin-3-yl-cyclohex-1-enylmethyl)-amine hydrochloride]: in assay [1] (4.64 mg/kg i.v.), the “Inhibition of the nociceptive behaviour versus control; % inhibition” value (“Inhibition … % inhibition” for short) is on record as −39.4%. In addition, the values for the inhibition at 10 µM in assay [2] and in assay [3] were -8% and 54%, respectively.
In the case of `COc1cncc([C@H]2CCCCCC[C@H]2CN(C)C)c1` (relative stereo) [Example 72, cis-[2-(5-Methoxy-pyridin-3-yl)-cyclooctylmethyl] -dimethyl-amine hydrochloride], the inhibition at 10 µM is 53% in assay [2] and 60% in assay [3].
Taken in the same sequence, the figures for `CN(C)CC1CCCCC1(Cl)c1cccnc1` (stereo not drawn) [Example 14, (2-Chloro-2-pyridin-3-yl-cyclohexylmethyl)-dimethyl-amine hydrochloride] were 27% and 73%.
As to `CN(CC1=C(c2cccnc2)CCCC1)Cc1ccccc1.Cl` [Example 10, Benzylmethyl-(2-pyridin-3-yl-cyclohex-1-enylmethyl)amine hydrochloride], the “Inhibition … % inhibition” value in assay [1] (10 mg/kg i.v.) is recorded as 66.3%.
Take `COc1cncc(C2CCCCC2CN(C)C)c1` (stereo not drawn) [Example 62, [2-(5-Methoxy-pyridin-3-yl)-cyclohexylmethyl] -dimethyl-amine hydrochloride]: the results for the inhibition at 10 µM in assay [2] and in assay [3] were 13% and 77%, respectively.
Take `CN(C)CC1=C(c2ccncc2)CCCCC1` [Example 38, Dimethyl-(2-pyridin-4-yl-cyclohept-1-enylmethyl)-amine hydrochloride]: the inhibition at 10 µM was 73% in assay [2] and 76% in assay [3].
Consider `CN(C)CC1CCCCC=C1c1cccnc1.Cl` (stereo not drawn) [Example 24, Dimethyl-(2-pyridin-3-yl-cyclohept-2-enylmethyl)-amine hydrochloride], for which the ED50 in assay [1] stood at 5.4 mg/kg. For the same compound, the figures for the inhibition at 10 µM in assay [2] and in assay [3] were 19% and 67%, respectively.
For the compound `CN(C)CC1=C(c2ccc(Cl)nc2)CCCC1.Cl` [Example 68, [2-(6-Chloro-pyridin-3-yl)-cyclohex-1-enylmethyl]-dimethyl-amine hydrochloride], the “NA re-uptake inhibition (10 μmol/l)” value in assay [2] (hydrochloride) was 62%. The “5-HT re-uptake inhibition (10 μmol/l)” value in assay [3] (hydrochloride) was determined as 67%.
Regarding `CN(C)C[C@@H]1CCCCC[C@H]1c1cccnc1` (relative stereo) [Example 27, trans-Dimethyl-(2-pyridin-3-yl-cycloheptylmethyl)-amine hydrochloride], the inhibition at 10 µM in assay [2] came to 54%; in assay [3], 88%.
In the case of `CN(C)CC1=C(c2cccnc2)CCC1.Cl` [Example 28, Dimethyl-(2-pyridin-3-yl-cyclopent-1-enylmethyl)-amine hydrochloride], the “Inhibition … % inhibition” value in assay [1] (10 mg/kg i.v.) is recorded as 92.6%. Moreover, the inhibition at 10 µM was found to be 29% in assay [2] and 83% in assay [3].
For `COc1cncc(C2=C(CN(C)C)CCCC2)c1` [Example 54, [2-(5-Methoxy-pyridin-3-yl)-cyclohex-1-enylmethyl]-dimethyl-amine hydrochloride], the inhibition at 10 µM in assay [2] came out at 17%; in assay [3], 85%.
On to `CNCC1=C(c2cccnc2)CCCC1.Cl` [Example 2, Methyl-(2-pyridin-3-yl-cyclohex-1-enylmethyl)amine hydrochloride], for which, in assay [1] (21.5 mg/kg i.v.), the “Inhibition … % inhibition” value is on record as 88%. The inhibition at 10 µM in assay [2] came out at 15%; in assay [3] it was 69%.
As for `COc1cncc([C@@H]2CCCCCC[C@H]2CN(C)C)c1` (relative stereo) [Example 70, trans-[2-(5-Methoxy-pyridin-3-yl)-cyclooctylmethyl]-dimethyl-amine and the corresponding hydrochloride], the “NA re-uptake inhibition (10 μmol/l)” value in assay [2] is recorded as 52%. Besides, the “5-HT re-uptake inhibition (10 μmol/l)” value in assay [3] was determined as 89%.
As to `COc1cncc(C2=CCCCC2CN(C)C)c1` (stereo not drawn) [Example 55, [2-(5-Methoxy-pyridin-3-yl)-cyclohex-2-enylmethyl]-dimethyl-amine hydrochloride], the figures for the inhibition at 10 µM in assay [2] and in assay [3] were 34% and 67%, respectively.
In the same order, the values of `COc1cncc(C2=CCCCCCC2CN(C)C)c1` (stereo not drawn) [Example 73, [2-(5-Methoxy-pyridin-3-yl)-cyclooct-2-enylmethyl] -dimethyl-amine hydrochloride] are 55% and 89%.
As to `CN(C)C[C@@H]1CSCC[C@@]1(O)c1cccnc1.Cl` (relative stereo) [Example 50, cis-3-Dimethylaminomethyl-4-pyridin-3-yl-tetrahydrothiopyran-4-ol hydrochloride], in assay [1] (21.5 mg/kg i.v.), the “Inhibition … % inhibition” value is recorded as 37.0%. The “NA re-uptake inhibition (10 μmol/l)” value in assay [2] was 29%. Moreover, in assay [3], the “5-HT re-uptake inhibition (10 μmol/l)” value amounted to 54%.
For `COc1cncc(C2=C(CN(C)C)CCCCCC2)c1` [Example 74, [2-(5-Methoxy-pyridin-3-yl)-cyclooct-1-enylmethyl] -dimethyl-amine hydrochloride], the results for the inhibition at 10 µM in assay [2] and in assay [3] were 56% and 72%, respectively.
Taken in the same sequence, the figures for `CN(C)CC1=C(c2ccc(Cl)nc2)CCCC1` [Example 49, [2-(6-Chloro-pyridin-3-yl)-cyclohex-1-enylmethyl]-dimethyl-amine hydrochloride] were 67% and 55%.
As for `CN(C)C[C@@H]1CCCC[C@H]1c1cccnc1.Cl` (relative stereo) [Example 7, trans-Dimethyl-(2-pyridin-3-yl-cyclohexylmethyl)amine hydrochloride], the ED50 in assay [1] turned out to be 2.55 mg/kg. Besides, the inhibition at 10 µM was 22% in assay [2] and 95% in assay [3].
For `COc1cncc(C2CCCCCC2CN(C)C)c1` (stereo not drawn) [Example 60, [2-(5-Methoxy-pyridin-3-yl)-cycloheptylmethyl] -dimethyl-amine hydrochloride], the inhibition at 10 µM in assay [2] is 30%; in assay [3] it was 75%.
As for `CN(C)CC1CCC=C1c1cccnc1` (stereo not drawn) [Example 29, Dimethyl-(2-pyridin-3-yl-cyclopent-2-enylmethyl)-amine hydrochloride], the inhibition at 10 µM in assay [2] came to 64%; in assay [3] it was 69%.
With `CN(C)CC1=C(c2cncc(O)c2)CCCC1` [Example 64, 5-(2-Dimethylaminomethyl-cyclohex-1-enyl)-pyridin-3-ol hydrochloride], the inhibition at 10 µM came out at 6% in assay [2] and 68% in assay [3].
Taken in the same sequence, the figures for `CN(C)CC1CCCCCC=C1c1ccc(Cl)nc1` (stereo not drawn) [Example 71, [2-(6-Chloro-pyridin-3-yl)-cyclooct-2-enylmethyl] -dimethyl-amine hydrochloride] were 77% and 74%.
Taken in the same sequence, the figures for `CN(C)CC1CCCCCC=C1c1cccnc1` (stereo not drawn) [Example 33, Dimethyl-(2-pyridin-3-yl-cyclooct-2-enylmethyl)-amine hydrochloride] were 50% and 74%.
As to `CN(C)CC1CCCCC1(Cl)c1ccc(Cl)nc1` (stereo not drawn) [Example 15, [2-Chloro-2-(6-chloro-pyridin-3-yl)-cyclohexylmethyl]-dimethyl-amine hydrochloride], the inhibition at 10 µM is 53% in assay [2] and 51% in assay [3].
Turning to `CN(C)CC1CCCCC=C1c1ccc(Cl)nc1` (stereo not drawn) [Example 48, [2-(6-chloro-pyridin-3-yl)-cyclohept-2-enylmethyl]-dimethyl-amine hydrochloride], the inhibition at 10 µM in assay [2] worked out at 82%; in assay [3], 81%.
For the compound `CN(C)C[C@@H]1CCCC[C@@H]1c1cccnc1` (relative stereo) [Example 6, cis-Dimethyl-(2-pyridin-3-yl-cyclohexylmethyl)amine hydrochloride], the inhibition at 10 µM came out at 25% in assay [2] and 94% in assay [3].

The record behind these values is US7384961B2, “Saturated and unsaturated heteroarylcycloalkylmethyl amines as anti-depressants” (priority 2002, dated 2008).
